What was measured:
[1] = system: NAP1L1 Cys-388, NAP1L4 Cys-383; assay: quantifying prenylated (farnesylated) proteins in hCO proteomics; type: cell-based, human
Experimental: Targeted data extraction to quantify prenylated peptides was performed manually in the Skyline Environment (MacLean et al., 2010) on Andremoda/MaxQuant search results which included the variable modification of farnesylation (cysteine; C15H24; 204.1878) and geranylation (cysteine; […]; 272.2504) with neutral loss. Only peptides with an Andromeda score >100 and a localization probability >0.75% were included in the analysis.
Given that several metabolites of the mevalonate pathway are required for post-translational modifications such as prenylation, we next performed targeted data extraction of our proteomic analysis (Gillet et al., 2012) for the addition of geranylgeranyl or farnesyl groups. We identified key targets of farnesylation, including NAP1L1 at Cys-388, which was also shown to be farnesylated in a prior study (Kho et al., 2004), and NAP1L4 at Cys-383, which we have identified as a novel farnesylated protein (FIG. 15C).

mature hCOs = assay: mature hCO, cardiomyocyte number, hCO size, bi-nucleation, cardiomyocyte size; type: cell-based, human; conditions: for cardiomyocyte number / bi-nucleation / hCO size (α-actinin area): 3 μM compound 3 or 1 μM compound 65; for bi-nucleation: 4 days; for hCO size (α-actinin area): 7 days
Experimental: For more detailed images an Olympus IX81 confocal microscope was used for mounted hCO imaging. For cell cycle analysis experiments 3 random fields of view were imaged and manually quantified for proliferation. These were added together to calculate the percentage of hPSC-CM proliferation in each hCO.
Cells were dissociated by washing in perfusion buffer at 37° C. (130 mM NaCl, 1 mM MgCl2, 5 mM KCl, 0.5 mM NaH2PO4, 10 mM HEPES, 10 mM Taurine, 10 mM glucose, 10 μM 2,3-butanedione monoxime, pH 7.4). hCO were then incubated in EDTA buffer at 37° C. for 5 min (130 mM NaCl, 5 mM KCl, 0.5 mM NaH2PO4, 10 mM HEPES, 10 mM Taurine, 10 mM glucose, 5 mM EDTA, 10 μM 2,3-butanedione monoxime, pH 7.4). hCO were washed in perfusion buffer and then incubated in perfusion buffer plus 1 mg/ml collagenase B (Roche) for 15 min at 37° C. on a shaker at 500 rpm. Equivolume 0.25% trypsin-EDTA (ThermoFisher) was then added and the hCOs were incubated for 10 min at 37° C. on a shaker at 500 rpm. Perfusion buffer with 5% FBS was then added and the single cells pelleted by centrifuging at 1000×g for 3 min. The cells were then resuspended in 1% para-formaldehyde and incubated for 5 min at room temperature. hCO were then centrifuged at 1000×g for 3 min, paraformaldehyde removed, suspended in PBS and counted using a haemocytometer.
Hits were next validated in mature hCOs using a targeted concentration range based on their active concentrations in the initial immature hCO screen (FIG. 3A). Proliferation markers were quantified using high magnification confocal imaging as we found flow cytometry to be inaccurate in hCO (data not shown). Compounds 3, 63 and 65 had no impact on contractile force (FIG. 3B) at concentrations of 3 μM, 0.3 μM and 1 μM, respectively. […] The effects of both compound 3 and compound 65 were reversible, with proliferation ceasing within 5 days of compound withdrawal (FIG. 8B). Therefore, compound 3 (FIG. 3G) and compound 65 (Goldberg et al., 2009) (FIG. 3H) are both capable of inducing bona fide cardiomyocyte proliferation in mature hCOs without adversely affecting contractile properties.

[2] = system: adult cardiomyocytes (MLC2v); assay: adult mouse intracardiac injection, BrdU+ cardiomyocytes after fix-dissociation; type: in vivo; conditions: adult mice; for cardiomyocyte DNA synthesis (BrdU+): single dose 10 mg/kg injected into the heart, 3 days
Experimental: 8-week-old male mice were anesthetized with 4% isoflurane (Bayer) with 0.25 L/min oxygen and then maintained with 2% isoflurane. Once, anaesthetised, each mouse received a s.c. buprenorphine injection (0.05 mg/kg). The animals were intubated and ventilated (Minivent, Harvard Apparatus) (tidal volume=250 respiration rate=133 strokes/min). To access the heart, a lateral thoracotomy was performed at the 4th intercostal space. A Hamilton syringe with a 30-gauge needle was used to inject ˜20 ? l of small molecule solution (final concentration 10 mg/kg) into the myocardium. All compounds were emulsified in Kolliphor/PBS solution (20% Kolliphor® HS 15 (w/v) in PBS, pH 7.4) at a concentration of 20 mg/mL. The chest wall was closed using 4-0 silk suture, the skin closed with 6-0 prolene suture and the mouse removed from anaesthesia. Following anaesthesia, mice were supplied with a s.c. injection of buprenorphine (0.05 mg/kg) and carprofen (10 mg/kg) and allowed to recover. Starting from the day of the surgery, mice received daily 5-bromo-2′-deoxyuridine (BrdU) injections (100 mg/kg, i.p.). […]
Cardiomyocytes were the counted, cytospun onto glass slides and stained with BrdU and MLC2v antibodies, relevant secondary antibodies (see Star Methods Table) and Hoechst (1:1000) to quantify proliferating cardiomyocytes. The AlexaFluor 647 was used to stain BrDU to avoid false positive associated with auto-fluorescence inherent in adult cardiomyocytes in blue-green-yellow channels. To quantify proliferation, 5,000 cardiomyocytes per heart were imaged using a Nikon Spinning Disc confocal microscope using a 20× objective.
Finally, we sought to determine whether compounds 3 and 65 could regulate adult cardiomyocyte proliferation in vivo and whether the mevalonate pathway is critical for these effects. […] Following injection, proliferation was assessed using BrdU pulse-chase for 3 days, followed by fix-dissociation of the hearts, enabling preservation and separation of cardiomyocytes (FIG. 7F) and accurate quantification of BrdU positive cardiomyocytes (FIG. 7G). […]

Cc1ccc(NC(=O)c2ccnc(N3CCOCC3)c2)cc1Nc1ccnc(N2CC(C)OC(C)C2)n1 (stereo not drawn) [compound 3]
farnesylation of NAP1L1 at Cys-388 [1]: increased | farnesylation of NAP1L4 at Cys-383 [1]: only increased farnesylation of NAP1L1 | cardiomyocyte size with 10 μM simvastatin (mature hCOs; 3 μM compound 3, 2 days): without significant changes | cardiomyocyte number (mature hCOs): increase | cardiomyocyte size (mature hCOs; 3 μM, 2 days): decreases | bi-nucleation (mature hCOs): without an increase | hCO size (α-actinin area) (mature hCOs): increase | cardiomyocyte size (mature hCOs; compound 3 or compound 65): without an increase | DNA synthesis response with simvastatin ([2]; 10 mg/kg intracardiac plus simvastatin 20 mg/kg s.c. daily): blocked | cardiomyocyte DNA synthesis (BrdU+) [2]: significantly increased

Cc1cc(Oc2ccnc(Nc3ccc(S(N)(=O)=O)cc3)c2)c(-c2ccccn2)nc1C [compound 65]
farnesylation of NAP1L1 at Cys-388 [1]: increased | farnesylation of NAP1L4 at Cys-383 [1]: increased | cardiomyocyte size, combined with 10 μM simvastatin (mature hCOs; 1 μM, 2 days): increased | cardiomyocyte number (mature hCOs): increase | bi-nucleation (mature hCOs): without an increase | hCO size (α-actinin area) (mature hCOs): increase | cardiomyocyte size (mature hCOs; compound 3 or compound 65): without an increase | cardiomyocyte DNA synthesis (BrdU+) [2]: significantly increased
